Results on 21 compounds are retold here after ChEMBL document CHEMBL3871292, “Evaluation of dipeptide nitriles as inhibitors of rhodesain, a major cysteine protease of Trypanosoma brucei” (Bioorg Med Chem Lett, 2017).

In general, inhibition refers to the percentage by which the read-out fell short of the control. The Ki is a measure of affinity in units of concentration, obtained from inhibition or displacement.

Sequence of Procathepsin L (P07711 whole entry): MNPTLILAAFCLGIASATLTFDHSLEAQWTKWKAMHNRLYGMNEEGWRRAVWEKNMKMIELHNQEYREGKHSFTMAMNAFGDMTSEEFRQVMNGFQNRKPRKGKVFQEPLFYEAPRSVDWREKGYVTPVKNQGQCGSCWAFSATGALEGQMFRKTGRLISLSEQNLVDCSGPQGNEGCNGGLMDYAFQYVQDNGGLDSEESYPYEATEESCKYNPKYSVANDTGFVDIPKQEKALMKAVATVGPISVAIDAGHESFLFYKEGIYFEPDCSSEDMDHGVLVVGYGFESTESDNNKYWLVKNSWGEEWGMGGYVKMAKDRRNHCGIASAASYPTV

One data set concerns Trypanosoma brucei. The experiment in a line: Inhibition of Trypanosoma brucei rhodesain using Cbz-Phe-Arg-AMC as substrate at 20 uM by fluorescence-based assay.
Details: not given
The compound `CC(C)CS(=O)(=O)CC(NC(=O)c1ccc(-c2ccccc2)s1)C(=O)NCC#N` (racemic) had an inhibition of 37%.
As for `N#CCNC(=O)[C@H](Cc1cccc(Br)c1)NC(=O)c1ccc(-c2ccccc2)cc1`, the inhibition was over 50%.
The compound `CC(C)(C)OC(=O)N[C@@H](Cc1ccccc1)C(=O)NCC#N` showed an inhibition of over 50%.
On the same count and under the same terms, with `CC(C)(C)OC(=O)N[C@@H](CC1CC1)C(=O)NCC#N` the figure was 30%; with `COc1ccc(C[C@H](NC(=O)OCc2ccccc2)C(=O)NCC#N)cc1`, over 50%; with `CC(C)CS(=O)(=O)CC(NC(=O)c1ccc(-c2ccsc2)s1)C(=O)NCC#N` (racemic), 29%.
For `CC(C)CS(=O)(=O)CC(NC(=O)c1cc(-c2ccccc2)cs1)C(=O)NCC#N` (racemic), the inhibition was over 50%.
The same measure, in the same setting: with `N#CCNC(=O)[C@H](Cc1ccc(O)cc1)NC(=O)OCc1ccccc1` the figure was over 50%; with `CC(C)(C)OC(=O)N[C@@H](Cc1ccc(O)cc1)C(=O)NCC#N`, over 50%; with `CCCC[C@H](NC(=O)OC(C)(C)C)C(=O)NCC#N`, over 50%.
On the same count and under the same terms, with `CC(C)(C)OC(=O)N[C@@H](Cc1ccco1)C(=O)NCC#N` the figure was over 50%; with `CC(C)CS(=O)(=O)CC(NC(=O)c1ccc(-c2nnn[nH]2)s1)C(=O)NCC#N` (racemic), 16%.
Compound `CC(C)CS(=O)(=O)CC(NC(=O)c1cc2ccsc2s1)C(=O)NCC#N` (racemic) had an inhibition of 25%.
For `N#CCNC(=O)C1(NC(=O)c2ccc(-c3noc(-c4cccs4)n3)cc2)CCCCC1`, the inhibition was over 50%.
For the compound `CN(C)c1cccc2c(S(=O)(=O)NC3(C(=O)NCC#N)CCCCC3)cccc12`, the inhibition was determined as 11%.
Same read-out and setting: with `CC(C)(C)OC(=O)N[C@@H](Cc1ccccc1F)C(=O)NCC#N` the figure was over 50%.
As to `CC(C)C[C@H](NC(=O)c1ccc(-c2noc(-c3cccs3)n2)cc1)C(=O)NCC#N`, the inhibition was over 50%.
The same measure, in the same setting: with `CC(C)(C)OC(=O)N[C@H](CC(=O)NC#N)Cc1ccccc1` the figure was over 50%; with `CSCC[C@H](NC(=O)OC(C)(C)C)C(=O)NCC#N`, over 50%; with `CC(C)(C)OC(=O)N[C@@H](COCc1ccccc1)C(=O)NCC#N`, over 50%.
For the compound `CC[C@H](NC(=O)OC(C)(C)C)C(=O)NCC#N`, the inhibition was 10%.

The test system of another data set is Trypanosoma brucei. In words: Inhibition of Trypanosoma brucei rhodesain using Cbz-Phe-Arg-AMC as substrate at 0.05 to 20 uM by fluorescence-based assay. The conditions noted are these: TDE = time-dependent effect.
For `N#CCNC(=O)[C@H](Cc1cccc(Br)c1)NC(=O)c1ccc(-c2ccccc2)cc1`, the inhibition result was “Tde”.
For `CC(C)C[C@H](NC(=O)c1ccc(-c2noc(-c3cccs3)n2)cc1)C(=O)NCC#N`, the inhibition entry was “Tde”.

Target in a further data set: not listed separately
In words: Competitive inhibition of Trypanosoma brucei rhodesain in presence of varying levels of Cbz-Phe-Arg-AMC substrate by Cheng-Prusoff equation analysis.
Details: not given
On to `N#CCNC(=O)[C@H](Cc1cccc(Br)c1)NC(=O)c1ccc(-c2ccccc2)cc1`, for which the inhibition constant (Ki) turned out to be 2.6 nM.
On to `CC(C)C[C@H](NC(=O)c1ccc(-c2noc(-c3cccs3)n2)cc1)C(=O)NCC#N`, for which the Ki was determined as 5.3 nM.

Target in the next data set: not listed separately
The experiment in a line: Inhibition of Trypanosoma brucei rhodesain using Cbz-Phe-Arg-AMC as substrate by fluorescence-based assay.
Details: not given
Take `CC(C)(C)OC(=O)N[C@@H](Cc1ccccc1)C(=O)NCC#N`: the Ki is 55 nM.
The compound `COc1ccc(C[C@H](NC(=O)OCc2ccccc2)C(=O)NCC#N)cc1` returned an inhibition constant (Ki) of 26 nM.
The compound `CC(C)CS(=O)(=O)CC(NC(=O)c1cc(-c2ccccc2)cs1)C(=O)NCC#N` (racemic) gave an inhibition constant (Ki) of 820 nM.
The same measure, in the same setting: with `N#CCNC(=O)[C@H](Cc1ccc(O)cc1)NC(=O)OCc1ccccc1` the figure was 44.6 nM; with `CC(C)(C)OC(=O)N[C@@H](Cc1ccc(O)cc1)C(=O)NCC#N`, 47 nM; with `CCCC[C@H](NC(=O)OC(C)(C)C)C(=O)NCC#N`, 750 nM.
Same read-out and setting: with `CC(C)(C)OC(=O)N[C@@H](Cc1ccco1)C(=O)NCC#N` the figure was 615 nM; with `N#CCNC(=O)C1(NC(=O)c2ccc(-c3noc(-c4cccs4)n3)cc2)CCCCC1`, 1540 nM.
In turn, `CC(C)(C)OC(=O)N[C@@H](Cc1ccccc1F)C(=O)NCC#N` yielded an inhibition constant (Ki) of 49.2 nM.
With `CC(C)(C)OC(=O)N[C@H](CC(=O)NC#N)Cc1ccccc1`, affinity was put at a Ki of 1270 nM.
On the same count and under the same terms, with `CSCC[C@H](NC(=O)OC(C)(C)C)C(=O)NCC#N` the figure was 1170 nM; with `CC(C)(C)OC(=O)N[C@@H](COCc1ccccc1)C(=O)NCC#N`, 950 nM.

Target in a further data set: not listed separately
In words: Inhibition of Trypanosoma brucei rhodesain using 10 uM of Cbz-Phe-Arg-AMC as substrate by Cheng-Prusoff equation analysis.
Details: not given
Compound `N#CCNC(=O)[C@H](Cc1cccc(Br)c1)NC(=O)c1ccc(-c2ccccc2)cc1` displayed a Ki of 9.2 nM.
Same read-out and setting: with `CC(C)C[C@H](NC(=O)c1ccc(-c2noc(-c3cccs3)n2)cc1)C(=O)NCC#N` the figure was 9.2 nM.

A further data set has as its target Procathepsin L (Homo sapiens, UniProt P07711). The experiment in a line: Inhibition of human cathepsin L using Z-Phe-Arg-pNA as substrate measured after 10 to 80 mins by spectrophotometric method.
Details: not given
`N#CCNC(=O)C1(NC(=O)c2ccc(-c3noc(-c4cccs4)n3)cc2)CCCCC1` showed a Ki of over 5000 nM.

Tested on in another data set: not listed separately
In words: Selectivity index, ratio of Ki for human cathepsin L to Ki for competitive inhibition of Trypanosoma brucei rhodesain.
Details: not given
For the compound `N#CCNC(=O)[C@H](Cc1cccc(Br)c1)NC(=O)c1ccc(-c2ccccc2)cc1`, the Ratio Ki was determined as 200.
Still for that read-out and setting: with `CC(C)C[C@H](NC(=O)c1ccc(-c2noc(-c3cccs3)n2)cc1)C(=O)NCC#N` the figure was 200.

A further data set has as its system Trypanosoma brucei brucei. The experiment in a line: Antitrypanosomal activity against Trypanosoma brucei brucei BS449 measured after 24 hrs using ATPlite-1 reagent by cell based luciferase reporter gene assay. Format: functional. The conditions noted are these: BS449, 24 h, read-out: EC50.
`CC(C)(C)OC(=O)N[C@@H](Cc1ccccc1F)C(=O)NCC#N`: the EC50 was 77000 nM.
Same read-out and setting: with `CC(C)C[C@H](NC(=O)c1ccc(-c2noc(-c3cccs3)n2)cc1)C(=O)NCC#N` the figure was 8000 nM.

The subject of a further data set is Trypanosoma brucei brucei. The experiment in a line: Antitrypanosomal activity against Trypanosoma brucei brucei Trypanosoma brucei brucei BS449 measured after 48 hrs using ATPlite-1 reagent by cell based luciferase reporter gene assay. It is filed as functional. Particulars: BS449, 48 h, read-out: EC50. On the technique in general: In ATP-based viability assays light output follows the ATP content of the culture.
Regarding `CC(C)(C)OC(=O)N[C@@H](Cc1ccccc1F)C(=O)NCC#N`, the EC50 is 70000 nM.
On the same count and under the same terms, with `CC(C)C[C@H](NC(=O)c1ccc(-c2noc(-c3cccs3)n2)cc1)C(=O)NCC#N` the figure was 10000 nM.

A further data set concerns Trypanosoma brucei brucei. In words: Antitrypanosomal activity against Trypanosoma brucei brucei BS449 measured after 72 hrs using ATPlite-1 reagent by cell based luciferase reporter gene assay.
Details: not given
Format: functional.
With `CC(C)(C)OC(=O)N[C@@H](Cc1ccccc1F)C(=O)NCC#N`, the EC50 entry is recorded as “Nd(Unstable)”.

Still in this data set, the particulars now being: Trypanosoma brucei, BS449, 72 h; read-out: EC50.
For `CC(C)C[C@H](NC(=O)c1ccc(-c2noc(-c3cccs3)n2)cc1)C(=O)NCC#N`, the EC50 came out at 6000 nM.

Staying with this data set, now noted: Trypanosoma brucei, BS449, 72 h; read-out: pEC50 (converted).
On to `CC(C)C[C@H](NC(=O)c1ccc(-c2noc(-c3cccs3)n2)cc1)C(=O)NCC#N`, for which the EC50 was 6190 nM.

Tested on in a further data set: not listed separately
The experiment in a line: Stability of the compound in HMI-9 medium measured after 48 hrs. Format: physicochemical.
Details: not given
With `CC(C)(C)OC(=O)N[C@@H](Cc1ccccc1F)C(=O)NCC#N`, the Stability entry is recorded as “Unstable”.

Tested on in a further data set: not listed separately
The experiment in a line: Solubility of the compound in HMI-9 medium.
Details: not given
Format: physicochemical.
In the case of `CC(C)C[C@H](NC(=O)c1ccc(-c2noc(-c3cccs3)n2)cc1)C(=O)NCC#N`, the solubility result is “Insoluble”.

Tested on in another data set: not listed separately
In words: Solubility of the compound in PBS. Particulars: buffer. Format: physicochemical.
In the case of `CC(C)C[C@H](NC(=O)c1ccc(-c2noc(-c3cccs3)n2)cc1)C(=O)NCC#N`, the solubility entry is “Insoluble”.
